Reference: patent publication US20120289517A1, “SOLID PHARMACEUTICAL COMPOSITION FOR ORAL ADMINISTRATION” (Kowa Co., Ltd., priority 2009, published 2012)

What was measured:
[1] = Dissolution test (paddle method, Japanese Pharmacopoeia); type: physicochemical; conditions: summary of Test Example 1
Method: Thus, the concentrations of the compound a after 5, 10, 15, 30, 45 and 60 minutes were measured. The sample solution collected at each time point was filtered through a membrane filter made of PTFE (DISMIC-25HP manufactured by Toyo Roshi Kaisha, Ltd.) having a pore size of 0.45 μm, and was analyzed by a high performance liquid chromatographic method using a reversed phase column (manufactured by Nomura Chemical Co., Ltd.; Develosil ODS-HG-5). Thus, the dissolution rates were calculated.

[2] = Solubility in water; type: physicochemical

dissolubility, result in words [1]: hardly dissolved
solubility in water [2]: 0.05 % (W/V)
SMILES: CSc1cc(C)nc(SC)c1NC(=O)CN1CCN(CCSc2nc3ccccc3[nH]2)CC1 [compound a, 2-[4-[2-(Benzimidazol-2-ylthio)ethyl]piperazin-1-yl]-N-[2,4-bis(methylthio)-6-methyl-3-pyridyl]acetamide]
